Assay results as given in PubChem BioAssay AID1963840 (Molecular Pharmacology Branch, DTP, NCI, 2024).

Test system: 695427-040-R-J1-PDC complex spheroid viability
Assay: Anticancer human tumor 695427-040-R-J1-PDC patient-derived colon adenocarcinoma cell line growth inhibition [POLQ]
Conditions: for IC50: curve of first compound; for viability, T/C: stronger effect = lower value; active = viability on the fitted dose curve at most 10% of control; inactive = the rest
Description: Multicellular complex tumor spheroid response to Polymerase (POL) inhibitors (novobiocin, ART-558, RP6685) in combination with a variety of drugs and investigational agents in selected tumor cell lines
The POL inhibitors (novobiocin, ART-558, and RP6685) were evaluated both individually and in combination with standard of care and investigational anticancer small molecules within a complex spheroid model of solid tumors. . Complex spheroids include a stromal component modeled by human endothelial cells (HUVEC) and fibroblasts modeled by human mesenchymal stem cells (MSCs). The concentration ranges selected for each drug and investigational agent were based upon clinically achievable concentrations if the clinical Cmax of the agent was known.
Compounds. The drugs and investigational agents: novobiocin (NSC847541), ART-558 (NSC835418), RP-6685 (NSC848927), peposertib (NSC802822), ceralasertib (NSC780249), elimusertib (NSC800525), camonsertib (NSC841442), AZD-1390 (NSC803789), olaparib (NSC753686), talazoparib (NSC767125), rucaparib (NSC756644), sotorasib (NSC818433), MRTX-1133 (NSC836407), SN-38 (NSC673596), topotecan (NSC609699), epotoside (NSC141540), doxorubicin (NSC123127), gemcitabine (NSC613327), 5-fluorouracil (NSC19893), paclitaxel (NSC125973), vemurafenib (NSC761431), MSA-2 (NSC828583), SN-011 (NSC837082), adavosertib (NSC754352), prexasertib (NSC758257), carboplatin (NSC241240) and oxaliplatin (NSC266046), were obtained from the National Cancer Institute (NCI) Developmental Therapeutics Program Chemical Repository (21). The FDA-approved anticancer drug set is available from the Developmental Therapeutics Program at https://dtp.cancer.gov/organization/dscb/obtaining/. […] The stock solutions were prepared in dimethyl sulfoxide (DMSO, Sigma-Aldrich, St. Louis, MO, cat. D2650), except for the platinum compounds which were prepared in saline (Quality Biological, Gaithersburg, MD, cat. 114-055-101), at 800-fold the tested concentration and stored at -70 degrees C prior to their use. All drugs and investigational agents were tested over a range starting from a high concentration at or near the clinical Cmax and decreasing in half-log increments. If the clinical Cmax for an agent had not been determined, the highest concentration tested was 10 microM, except for SN-38, which was tested at a high concentration of 1 microM.
Cell Culture. All cells were maintained in an incubator at 37 degrees C and 5% CO2 with 95% humidity. The PDC lines were cultured according to standard operating procedures established by the NCI PDMR (https://pdmr.cancer.gov). Table 3 of the manuscript, lists the cell lines along with the number of the three cell types plated to form the mct-spheroids and media for tumor cell growth. After thawing, all PDC lines, except 997537-175-T-J1-PDC and 415267-285-R-J2-PDC, were cultured in Matrigel-coated flasks prepared with a working solution of 1X Ham's F-12 nutrient mix, without supplementation (Thermo Fisher Scientific, cat. 11765054), 100 U/mL penicillin-streptomycin (Thermo Fisher Scientific, cat. 15140122), and 2.5% Matrigel (Corning Inc., Corning, NY, cat. 354248) for the first three passages. The two PDC lines 997537-175-T-J1-PDC and 415267-285-R-J2-PDC were cultured on uncoated flasks. The 857933-349-R-J2-PDC line was cultured in 6C/Colon 1B media containing advanced DMEM/F-12 (Thermo Fisher Scientific, cat. 12634028), 10 mM HEPES (Thermo Fisher Scientific, cat. 15630080), 1X GlutaMAX supplement (Thermo Fisher Scientific, cat. 35050061), 0.1 mg/mL primocin (InvivoGen, San Diego, CA, cat. ant-pm-2), 10% defined fetal bovine serum, heat inactivated (HyClone Laboratories Inc., Logan, UT, cat. SH30070.03HI), 50% L-WRN conditioned media (ATCC, cat. CRL-3276), 1.25 mM N-Acetyl-L-cysteine (Sigma-Aldrich, cat. A9165), 10 mM nicotinamide (Sigma-Aldrich, cat. N0636), 1X B-27 supplement (Thermo Fisher Scientific, cat. 17504044), 1X N-2 supplement (Thermo Fisher Scientific, cat. […]

[1] = second compound 0.0316 µM, first compound 0.0316 µM
[2] = second compound 0.0316 µM, first compound 0.1 µM
[3] = second compound 0.0316 µM, first compound 0.316 µM
[4] = second compound 0.0316 µM, first compound 1 µM
[5] = second compound 0.0316 µM, first compound 3.16 µM
[6] = second compound 0.0316 µM, first compound 10 µM
[7] = second compound 0.1 µM, first compound 0.0316 µM
[8] = second compound 0.1 µM, first compound 0.1 µM
[9] = second compound 0.1 µM, first compound 0.316 µM
[10] = second compound 0.1 µM, first compound 1 µM
[11] = second compound 0.1 µM, first compound 3.16 µM
[12] = second compound 0.1 µM, first compound 10 µM
[13] = second compound 0.316 µM, first compound 0.0316 µM
[14] = second compound 0.316 µM, first compound 0.1 µM
[15] = second compound 0.316 µM, first compound 0.316 µM
[16] = second compound 0.316 µM, first compound 1 µM
[17] = second compound 0.316 µM, first compound 3.16 µM
[18] = second compound 0.316 µM, first compound 10 µM
[19] = second compound 1 µM, first compound 0.0316 µM
[20] = second compound 1 µM, first compound 0.1 µM
[21] = second compound 1 µM, first compound 0.316 µM
[22] = second compound 1 µM, first compound 1 µM
[23] = second compound 1 µM, first compound 3.16 µM
[24] = second compound 1 µM, first compound 10 µM
[25] = second compound 3.16 µM, first compound 0.0316 µM
[26] = second compound 3.16 µM, first compound 0.1 µM
[27] = second compound 3.16 µM, first compound 0.316 µM
[28] = second compound 3.16 µM, first compound 1 µM
[29] = second compound 3.16 µM, first compound 3.16 µM
[30] = second compound 3.16 µM, first compound 10 µM
[31] = second compound 10 µM, first compound 0.0316 µM
[32] = second compound 10 µM, first compound 0.1 µM
[33] = second compound 10 µM, first compound 0.316 µM
[34] = second compound 10 µM, first compound 1 µM
[35] = second compound 10 µM, first compound 3.16 µM
[36] = second compound 10 µM, first compound 10 µM
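Note: spheroids exposed to compounds for seven days.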

CC1COCCN1c1cc(-c2ccnn2C)c2ccnc(-c3ccn[nH]3)c2n1 (centres undefined) + COC1C(OC(N)=O)C(O)C(Oc2ccc3c(O)c(NC(=O)c4ccc(O)c(CC=C(C)C)c4)c(=O)oc3c2C)OC1(C)C
1.47 µM: IC50 (second compound 10 µM)
1.21 µM: IC50 (second compound 0.0316 µM) | IC50 (second compound 3.16 µM)
1.56 µM: IC50 (second compound 0.316 µM)
1.13 µM: IC50 (second compound 0.1 µM)
inactive: viability, T/C [1] 97.2% | viability, T/C [2] 83.3% | viability, T/C [3] 63.5% | viability, T/C [4] 50.3% | viability, T/C [5] 47% | viability, T/C [6] 44.8% | viability, T/C [7] 97.5% | viability, T/C [8] 81.1% | viability, T/C [9] 64.2% | viability, T/C [10] 49.9% | viability, T/C [11] 44.3% | viability, T/C [12] 44.7% | viability, T/C [13] 104% | viability, T/C [14] 79.7% | viability, T/C [15] 61.4% | viability, T/C [16] 51.2% | viability, T/C [17] 48.5% | viability, T/C [18] 44.6% | viability, T/C [19] 93.5% | viability, T/C [20] 85.9% | viability, T/C [21] 58.2% | viability, T/C [22] 49.4% | viability, T/C [23] 46.6% | viability, T/C [24] 41.8% | viability, T/C [25] 95.8% | viability, T/C [26] 86.8% | viability, T/C [27] 63.3% | viability, T/C [28] 52.1% | viability, T/C [29] 47.6% | viability, T/C [30] 44.7% | viability, T/C [31] 90.8% | viability, T/C [32] 80.6% | viability, T/C [33] 65.9% | viability, T/C [34] 47.5% | viability, T/C [35] 51% | viability, T/C [36] 46.2%
0.748 µM: IC50 (second compound 1 µM)

CC1COCCN1c1cc(C2(O)CC3CCC(C2)O3)c2cnn(-c3ccn[nH]3)c2n1 (centres undefined) + COC1C(OC(N)=O)C(O)C(Oc2ccc3c(O)c(NC(=O)c4ccc(O)c(CC=C(C)C)c4)c(=O)oc3c2C)OC1(C)C
3.94 µM: IC50 (second compound 0.0316 µM)
4.12 µM: IC50 (second compound 1 µM) | IC50 (second compound 10 µM)
4.71 µM: IC50 (second compound 0.1 µM)
5.84 µM: IC50 (second compound 0.316 µM)
inactive: viability, T/C [1] 105% | viability, T/C [2] 86.8% | viability, T/C [3] 75.3% | viability, T/C [4] 64.9% | viability, T/C [5] 50.9% | viability, T/C [6] 41.9% | viability, T/C [7] 116% | viability, T/C [8] 88.6% | viability, T/C [9] 79.1% | viability, T/C [10] 61.5% | viability, T/C [11] 52.6% | viability, T/C [12] 44.9% | viability, T/C [13] 99.9% | viability, T/C [14] 84.7% | viability, T/C [15] 83.7% | viability, T/C [16] 71.2% | viability, T/C [17] 54.3% | viability, T/C [18] 44.6% | viability, T/C [19] 97.9% | viability, T/C [20] 91% | viability, T/C [21] 75.9% | viability, T/C [22] 64% | viability, T/C [23] 51% | viability, T/C [24] 45% | viability, T/C [25] 102% | viability, T/C [26] 91.2% | viability, T/C [27] 80% | viability, T/C [28] 62.6% | viability, T/C [29] 52.4% | viability, T/C [30] 45.3% | viability, T/C [31] 129% | viability, T/C [32] 91.8% | viability, T/C [33] 77.4% | viability, T/C [34] 63.9% | viability, T/C [35] 50.3% | viability, T/C [36] 44.6%
4.5 µM: IC50 (second compound 3.16 µM)
